Common to all, as to experiment: Kinobeads competition binding, L-363 cell lysate
Common to all, as to conditions: 10 μM free compound, L-363 lysate

In one experiment the target is CDK2 (Homo sapiens, UniProt P24941). Also on record: endogenous in cells. The essentials:
(§1)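 Kinases remaining free after lysate exposure to 10 μM test compound were pulled down by beads carrying the immobilized compound and compared with a DMSO-treated aliquot via iTRAQ LC-MS/MS. Cells had received MG132 (20 μM, 3 h).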

The target in a further experiment is T1, GCK (Homo sapiens, UniProt Q12851).
T1 sequence (Q12851 1-820): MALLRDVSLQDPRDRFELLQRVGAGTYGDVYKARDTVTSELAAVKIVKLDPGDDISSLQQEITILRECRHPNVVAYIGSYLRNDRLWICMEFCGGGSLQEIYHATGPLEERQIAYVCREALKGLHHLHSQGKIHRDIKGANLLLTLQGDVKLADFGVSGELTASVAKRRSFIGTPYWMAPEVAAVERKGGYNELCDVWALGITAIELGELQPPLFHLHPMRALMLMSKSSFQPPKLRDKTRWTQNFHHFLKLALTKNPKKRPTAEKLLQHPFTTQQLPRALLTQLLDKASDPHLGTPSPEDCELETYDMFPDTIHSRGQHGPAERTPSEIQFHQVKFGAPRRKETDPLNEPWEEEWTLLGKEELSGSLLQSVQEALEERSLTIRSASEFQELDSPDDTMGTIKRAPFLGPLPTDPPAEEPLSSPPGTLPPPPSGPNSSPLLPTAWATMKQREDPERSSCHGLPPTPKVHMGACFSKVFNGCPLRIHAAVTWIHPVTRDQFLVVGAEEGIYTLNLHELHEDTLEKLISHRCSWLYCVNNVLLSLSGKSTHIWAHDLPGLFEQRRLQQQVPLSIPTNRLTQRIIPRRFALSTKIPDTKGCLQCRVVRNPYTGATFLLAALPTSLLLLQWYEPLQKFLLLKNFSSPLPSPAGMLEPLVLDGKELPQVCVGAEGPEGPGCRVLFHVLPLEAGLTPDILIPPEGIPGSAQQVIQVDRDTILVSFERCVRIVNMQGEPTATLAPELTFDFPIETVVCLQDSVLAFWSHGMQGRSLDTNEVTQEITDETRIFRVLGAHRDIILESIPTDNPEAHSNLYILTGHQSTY
Also noted: endogenous in cells. The essentials: as §1

A further experiment concerns the target T2, PHKg2 (Homo sapiens, UniProt P15735).
T2 sequence (P15735 1-406): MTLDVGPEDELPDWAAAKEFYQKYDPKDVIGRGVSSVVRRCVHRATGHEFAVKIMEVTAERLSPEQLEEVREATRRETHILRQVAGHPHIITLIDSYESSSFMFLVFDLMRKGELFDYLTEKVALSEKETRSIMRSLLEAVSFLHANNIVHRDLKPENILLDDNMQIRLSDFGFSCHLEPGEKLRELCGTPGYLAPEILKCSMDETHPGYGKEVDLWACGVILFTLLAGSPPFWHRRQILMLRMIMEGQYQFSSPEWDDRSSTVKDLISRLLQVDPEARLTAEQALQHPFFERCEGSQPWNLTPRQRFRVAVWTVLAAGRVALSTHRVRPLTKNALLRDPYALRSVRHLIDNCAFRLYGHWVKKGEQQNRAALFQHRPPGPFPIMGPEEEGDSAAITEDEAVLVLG
Also on record: endogenous in cells. The essentials: as §1

For the next experiment, the target named is QIK (Homo sapiens, UniProt Q9H0K1). Also on record: endogenous in cells. The essentials: as §1
A further experiment concerns the target BTK (Homo sapiens, UniProt Q06187). Also noted: capturing and identification of kinases from L-363 cell lysate; endogenous in cells; host or cells: L-363 cells, treated with MG132 before harvest. On the procedure: (§2) To one aliquot of cell lysate 10 μM of the free compound (FIG. 3, CZC31326) was added and allowed to bind to proteins in the lysate. Then the affinity matrix with the immobilized compound was added to capture proteins that were not interacting with the previously added free compound. Beads were separated from the lysate and bead bound proteins were eluted in SDS sample buffer and subsequently separated by SDS-Polyacrylamide gel electrophoresis (FIG. 8). Suitable gel bands were cut out and subjected to in-gel proteolytic digestion with trypsin. The second lysate aliquot was processed identically, however no free compound was added (DMSO solvent control). Peptides originating from samples 1 and 2 were labeled with iTRAQ reagents (iTRAQ 114 and iTRAQ 117) and the combined samples were analyzed with a nano-flow liquid chromatography system coupled online to a tandem mass spectrometer (LC-MS/MS) experiment followed by iTRAQ reporter ion quantification in the MS/MS spectra as described in Example 2.
(§3) For this experiment the human plasma cell leukaemia line L-363 was used (German Collection of Microorganisms and Cell Cultures, DSMZ number ACC49, Braunschweig, Germany). Cells were treated for three hours with 20 μM of the proteasome inhibitor MG132 (Z-Leu-Leu-Leu-al, Sigma C2211) prior to cell harvesting.

For a further experiment, the target named is BCR (Homo sapiens, UniProt P11274). Also on record: capturing and identification of kinases from L-363 cell lysate; endogenous in cells; host or cells: L-363 (DSMZ ACC49), treated with MG132 before harvest. On the procedure:
as §2, §3

The next experiment concerns the target LYN (Homo sapiens, UniProt P07948). Also on record: capturing and identification of kinases from L-363 cell lysate; endogenous in cells; host or cells: L-363 (DSMZ ACC49), treated with MG132 before harvest. On the procedure: as §2, §3
In the next experiment the target is MAP2K6 (Homo sapiens, UniProt P52564). Also noted: capturing and identification of kinases from L-363 cell lysate; endogenous in cells; host or cells: L-363 (DSMZ ACC49), treated with MG132 before harvest. On the procedure: as §2, §3
Another experiment has as its target RIPK2 (Homo sapiens, UniProt O43353). Also on record: capturing and identification of kinases from L-363 cell lysate; endogenous in cells; host or cells: L-363 (DSMZ ACC49), treated with MG132 before harvest. On the procedure: as §2, §3

Chain of MAP2K6 (P52564 whole entry): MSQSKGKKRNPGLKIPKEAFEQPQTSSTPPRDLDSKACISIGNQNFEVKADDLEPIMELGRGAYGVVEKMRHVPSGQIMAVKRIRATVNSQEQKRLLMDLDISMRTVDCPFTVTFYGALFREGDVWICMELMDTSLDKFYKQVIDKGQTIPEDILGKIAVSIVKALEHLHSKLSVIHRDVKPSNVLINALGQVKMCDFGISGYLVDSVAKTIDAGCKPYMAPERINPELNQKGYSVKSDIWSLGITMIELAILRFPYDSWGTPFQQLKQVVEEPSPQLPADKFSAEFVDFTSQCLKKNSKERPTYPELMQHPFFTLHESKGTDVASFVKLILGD
Chain of QIK (Q9H0K1 whole entry): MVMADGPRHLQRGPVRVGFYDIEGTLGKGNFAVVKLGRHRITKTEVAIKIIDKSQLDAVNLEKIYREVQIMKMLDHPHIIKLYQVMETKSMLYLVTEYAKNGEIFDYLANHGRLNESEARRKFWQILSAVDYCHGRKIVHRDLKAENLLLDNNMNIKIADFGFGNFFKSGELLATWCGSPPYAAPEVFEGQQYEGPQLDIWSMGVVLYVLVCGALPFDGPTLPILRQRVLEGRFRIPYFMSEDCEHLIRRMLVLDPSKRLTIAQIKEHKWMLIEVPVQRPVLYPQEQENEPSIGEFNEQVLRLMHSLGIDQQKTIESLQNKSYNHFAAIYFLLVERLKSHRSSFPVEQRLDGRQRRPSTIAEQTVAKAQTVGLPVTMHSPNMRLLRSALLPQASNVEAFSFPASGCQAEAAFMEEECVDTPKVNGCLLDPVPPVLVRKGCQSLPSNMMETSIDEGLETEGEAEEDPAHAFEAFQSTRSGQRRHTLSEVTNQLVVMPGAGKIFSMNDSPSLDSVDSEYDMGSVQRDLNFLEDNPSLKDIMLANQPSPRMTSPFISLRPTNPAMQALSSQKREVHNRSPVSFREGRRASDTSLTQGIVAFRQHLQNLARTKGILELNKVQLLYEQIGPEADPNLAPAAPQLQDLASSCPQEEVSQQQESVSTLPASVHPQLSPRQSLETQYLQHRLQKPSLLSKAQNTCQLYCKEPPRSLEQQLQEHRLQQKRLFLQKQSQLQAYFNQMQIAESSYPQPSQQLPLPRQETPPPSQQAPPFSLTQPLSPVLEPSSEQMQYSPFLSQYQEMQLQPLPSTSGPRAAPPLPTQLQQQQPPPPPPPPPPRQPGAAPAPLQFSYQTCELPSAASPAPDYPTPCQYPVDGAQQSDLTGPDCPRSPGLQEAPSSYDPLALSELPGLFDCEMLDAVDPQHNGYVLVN
Chain of BCR (P11274 whole entry): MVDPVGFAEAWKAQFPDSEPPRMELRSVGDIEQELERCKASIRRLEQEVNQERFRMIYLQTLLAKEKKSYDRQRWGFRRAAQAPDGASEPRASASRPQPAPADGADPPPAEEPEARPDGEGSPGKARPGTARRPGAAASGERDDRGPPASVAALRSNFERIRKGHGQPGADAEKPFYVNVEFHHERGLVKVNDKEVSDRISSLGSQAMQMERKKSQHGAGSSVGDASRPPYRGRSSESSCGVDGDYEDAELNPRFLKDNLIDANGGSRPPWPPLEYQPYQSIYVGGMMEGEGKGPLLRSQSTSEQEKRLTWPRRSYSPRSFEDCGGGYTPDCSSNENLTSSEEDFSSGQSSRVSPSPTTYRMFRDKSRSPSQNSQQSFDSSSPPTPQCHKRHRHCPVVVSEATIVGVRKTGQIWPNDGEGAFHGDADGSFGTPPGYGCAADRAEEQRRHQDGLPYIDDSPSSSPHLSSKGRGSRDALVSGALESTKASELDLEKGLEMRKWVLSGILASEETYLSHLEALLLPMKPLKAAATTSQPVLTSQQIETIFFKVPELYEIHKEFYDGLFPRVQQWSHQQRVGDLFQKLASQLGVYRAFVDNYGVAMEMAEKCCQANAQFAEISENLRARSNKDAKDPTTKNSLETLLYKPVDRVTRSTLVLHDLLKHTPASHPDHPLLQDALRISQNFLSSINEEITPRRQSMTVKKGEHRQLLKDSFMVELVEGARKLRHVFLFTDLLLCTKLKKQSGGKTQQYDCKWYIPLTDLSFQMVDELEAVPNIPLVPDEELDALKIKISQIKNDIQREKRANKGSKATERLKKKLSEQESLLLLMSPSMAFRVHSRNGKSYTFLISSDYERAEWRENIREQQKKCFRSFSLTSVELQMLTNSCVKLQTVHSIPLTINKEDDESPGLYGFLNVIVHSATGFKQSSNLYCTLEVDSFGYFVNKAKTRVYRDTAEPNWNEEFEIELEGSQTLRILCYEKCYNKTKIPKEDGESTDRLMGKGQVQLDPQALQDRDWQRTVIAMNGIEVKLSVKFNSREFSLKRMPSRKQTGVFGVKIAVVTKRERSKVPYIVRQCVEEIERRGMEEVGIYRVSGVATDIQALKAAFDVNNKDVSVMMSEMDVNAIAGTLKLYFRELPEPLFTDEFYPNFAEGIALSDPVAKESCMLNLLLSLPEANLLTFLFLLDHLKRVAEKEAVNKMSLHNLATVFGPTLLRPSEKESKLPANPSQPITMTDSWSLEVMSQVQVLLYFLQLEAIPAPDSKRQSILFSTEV
Chain of LYN (P07948 whole entry): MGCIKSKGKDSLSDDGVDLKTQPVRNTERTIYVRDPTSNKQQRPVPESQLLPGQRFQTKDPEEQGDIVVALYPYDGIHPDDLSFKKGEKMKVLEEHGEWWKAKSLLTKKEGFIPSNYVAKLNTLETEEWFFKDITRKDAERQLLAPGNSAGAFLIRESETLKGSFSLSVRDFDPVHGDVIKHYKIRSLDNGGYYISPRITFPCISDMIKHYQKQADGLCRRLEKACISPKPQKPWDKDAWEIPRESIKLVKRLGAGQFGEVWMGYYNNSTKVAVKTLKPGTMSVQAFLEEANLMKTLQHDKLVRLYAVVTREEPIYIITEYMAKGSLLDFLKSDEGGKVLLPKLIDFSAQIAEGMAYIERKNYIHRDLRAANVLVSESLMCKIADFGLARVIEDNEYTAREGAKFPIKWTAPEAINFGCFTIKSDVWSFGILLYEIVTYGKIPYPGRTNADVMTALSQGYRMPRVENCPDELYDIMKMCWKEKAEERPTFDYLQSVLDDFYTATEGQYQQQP
Chain of BTK (Q06187 whole entry): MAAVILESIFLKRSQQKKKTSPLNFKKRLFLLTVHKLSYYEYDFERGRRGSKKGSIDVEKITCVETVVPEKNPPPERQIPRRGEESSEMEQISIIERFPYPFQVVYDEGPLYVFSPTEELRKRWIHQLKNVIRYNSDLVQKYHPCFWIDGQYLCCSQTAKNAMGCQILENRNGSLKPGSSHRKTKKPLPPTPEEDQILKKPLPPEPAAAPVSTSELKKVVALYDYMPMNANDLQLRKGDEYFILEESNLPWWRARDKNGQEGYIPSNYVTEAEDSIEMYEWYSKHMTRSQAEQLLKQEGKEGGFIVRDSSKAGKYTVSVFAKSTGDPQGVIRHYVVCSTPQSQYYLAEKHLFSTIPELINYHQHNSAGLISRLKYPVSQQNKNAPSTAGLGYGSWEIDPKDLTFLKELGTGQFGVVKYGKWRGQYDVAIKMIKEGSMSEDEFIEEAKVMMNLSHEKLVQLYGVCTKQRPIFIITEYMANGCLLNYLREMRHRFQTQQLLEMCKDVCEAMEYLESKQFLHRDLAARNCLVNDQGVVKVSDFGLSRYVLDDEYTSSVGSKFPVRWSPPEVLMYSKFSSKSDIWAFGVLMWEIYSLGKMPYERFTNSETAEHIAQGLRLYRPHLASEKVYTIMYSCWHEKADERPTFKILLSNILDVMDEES
Chain of RIPK2 (O43353 whole entry): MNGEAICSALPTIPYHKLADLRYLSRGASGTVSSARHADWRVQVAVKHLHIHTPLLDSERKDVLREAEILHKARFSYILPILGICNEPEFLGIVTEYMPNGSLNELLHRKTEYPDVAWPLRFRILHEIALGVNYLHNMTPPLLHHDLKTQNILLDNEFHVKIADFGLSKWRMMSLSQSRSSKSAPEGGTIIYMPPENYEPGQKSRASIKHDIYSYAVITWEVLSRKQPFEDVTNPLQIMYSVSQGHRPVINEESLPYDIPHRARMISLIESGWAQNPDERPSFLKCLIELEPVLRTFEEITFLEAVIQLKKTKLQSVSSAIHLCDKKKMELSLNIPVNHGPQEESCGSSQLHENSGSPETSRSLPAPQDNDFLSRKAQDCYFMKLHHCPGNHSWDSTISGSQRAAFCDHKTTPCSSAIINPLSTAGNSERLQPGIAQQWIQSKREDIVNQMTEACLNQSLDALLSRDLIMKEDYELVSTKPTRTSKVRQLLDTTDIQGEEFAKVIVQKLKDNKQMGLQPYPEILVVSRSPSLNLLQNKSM

Take `CS(=O)(=O)Nc1ccccc1Nc1nc(Nc2cccc(OCCN)c2)ncc1Cl` [CZC31326, N-(2-(2-(3-(2-aminoethoxy)phenylamino)-5-chloropyrimidin-4-ylamino)phenyl)methanesulfonamide]: the Competition % at CDK2 was found to be 95.2%; at BTK, 95.7%. Also, the inhibition (as a rule, the drop in the measured response relative to a control, in per cent) at 10 µM at GCK worked out at 95.1%; on PHKg2, 94.1%; on QIK, 96.5%; on BCR, 93.6%; at LYN, 94.5%; on MAP2K6, 94.2%. Further, the inhibition at 10 µM at RIPK2 worked out at 95.5%.

(Values after patent publication US20120270237A9, “METHODS FOR THE IDENTIFICATION OF KINASE INTERACTING MOLECULES AND FOR THE PURIFICATION OF KINASE PROTEINS” (Cellzone AG, priority 2009, published 2012).)
